According to patent US8715927B2, “Inhibition of DNA polymerases to augment chemotherapeutic and antimicrobial agents” (priority 2008, dated 2014):

Assays:
COS-7 cells = assay: Mutagenesis assay: site-specifically modified pMS2 shuttle vector replicated in COS-7 cells; assay type: cell-based; conditions: for Deletions / Single base substitutions G to A / Single base substitutions G to C / Single base substitutions G to T: number among colonies scored, pMS2 vector, COS-7 cells; for Frequency of mutations: pMS2 vector replicated in COS-7 cells
Method: Mutagenesis assays were performed using a previously developed pMS2 shuttle vector/COS-7 system (Moriya, Proc. Natl. Acad. Sci. U.S.A. 90:1122-1126, 1993). In its single-stranded form, the pMS2 vector contains a hairpin loop with an internal EcoRV restriction site. Incorporation of control non-damaged oligodeoxynucleotides into this site was accomplished in the presence of a scaffold DNA according to a published method (Kanuri et al., J. Biol. Chem. 277:18257-18265, 2002). To create a single-stranded pMS2 containing site-specific interstrand crosslink, the procedure was modified as described below.
Oligodeoxynucleotides containing a model acrolein-derived site-specific interstrand crosslink (FIG. 1A and FIG. 1B) were designed in such a way that peripheral regions of the longer strands (36-mer) were complementary to the vector sequences immediately adjacent to the EcoRV site. A circular single-stranded pMS2 vector (approximately 15 pmol) was digested with 40 units of EcoRV (New England BioLabs) for 3 hours at 37° C. to generate a linear DNA. 5′-phosphorylated crosslinked inserts (60 pmol) were added to the linear single-stranded pMS2 (15 pmol), and ligated using 60 units of T4 DNA ligase (New England BioLabs) for 48 hours at 4° C. To obtain double-stranded pMS2 vectors, the 36-mer strand of the crosslink or the scaffold oligodeoxynucleotide in control DNA was extended using 5 units of T4 DNA polymerase (New England BioLabs) and 1 mM dNTPs at 37° C. for 1 hour. A newly-synthesized strand was concomitantly sealed using 5 units of T4 DNA ligase (New England BioLabs). The creation of double-stranded pMS2 was verified by PstI (New England BioLabs) digestion.
Transfection of pMS2 vector into COS-7 cells, isolation of progeny DNA, selection of individual clones by E. coli transformation, and differential hybridization analyses were performed as previously described (Moriya, Proc. Natl. Acad. Sci. U.S.A. 90:1122-1126, 1993; Kanuri et al., J. Biol. Chem. 277:18257-18265, 2002).
Previous studies have established that in human cells, crotonaldehyde-mediated N^2-N^2-guanine ICLs were repaired mostly (>94%) in an error-free manner (Liu et al., Biochemistry 45:12898-12905, 2006). Since acrolein-mediated ICLs are structurally similar to crotonaldehyde-mediated ICLs, it is possible that model acrolein-derived N^2-N^2-guanine ICL (FIG. 1A) would not be highly mutagenic when plasmid vectors containing this lesion were replicated in mammalian cells. In order to test this, oligodeoxynucleotides were constructed to contain a site-specific ICL in either CpG or GpC sequence contexts (FIG. 1B) and engineered into a double-stranded DNA shuttle vector (pMS2). The vector was replicated in COS-7 cells, and progeny DNAs were analyzed to determine frequency and types of mutations. In both the CpG and GpC sequence contexts, the mutation frequencies were very low, 3.0% and 3.2%, respectively (Table 2).

avidin = avidin (Gallus gallus, UniProt P02701); conditions: non-covalent interaction; cited from earlier work
Sequence of avidin (P02701 25-152, species assumed): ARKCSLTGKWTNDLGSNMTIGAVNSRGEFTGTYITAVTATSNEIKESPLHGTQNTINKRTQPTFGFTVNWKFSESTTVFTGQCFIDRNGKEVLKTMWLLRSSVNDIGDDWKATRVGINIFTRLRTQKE

E. coli DNA pol II = target: T1, E. coli DNA pol II (Escherichia coli, UniProt P21189); assay: Primer extension assay by E. coli DNA pol II; assay type: biochemical; conditions: pol II 0.3 nM, time course
T1 construct: made in house
T1 sequence (P21189 whole entry): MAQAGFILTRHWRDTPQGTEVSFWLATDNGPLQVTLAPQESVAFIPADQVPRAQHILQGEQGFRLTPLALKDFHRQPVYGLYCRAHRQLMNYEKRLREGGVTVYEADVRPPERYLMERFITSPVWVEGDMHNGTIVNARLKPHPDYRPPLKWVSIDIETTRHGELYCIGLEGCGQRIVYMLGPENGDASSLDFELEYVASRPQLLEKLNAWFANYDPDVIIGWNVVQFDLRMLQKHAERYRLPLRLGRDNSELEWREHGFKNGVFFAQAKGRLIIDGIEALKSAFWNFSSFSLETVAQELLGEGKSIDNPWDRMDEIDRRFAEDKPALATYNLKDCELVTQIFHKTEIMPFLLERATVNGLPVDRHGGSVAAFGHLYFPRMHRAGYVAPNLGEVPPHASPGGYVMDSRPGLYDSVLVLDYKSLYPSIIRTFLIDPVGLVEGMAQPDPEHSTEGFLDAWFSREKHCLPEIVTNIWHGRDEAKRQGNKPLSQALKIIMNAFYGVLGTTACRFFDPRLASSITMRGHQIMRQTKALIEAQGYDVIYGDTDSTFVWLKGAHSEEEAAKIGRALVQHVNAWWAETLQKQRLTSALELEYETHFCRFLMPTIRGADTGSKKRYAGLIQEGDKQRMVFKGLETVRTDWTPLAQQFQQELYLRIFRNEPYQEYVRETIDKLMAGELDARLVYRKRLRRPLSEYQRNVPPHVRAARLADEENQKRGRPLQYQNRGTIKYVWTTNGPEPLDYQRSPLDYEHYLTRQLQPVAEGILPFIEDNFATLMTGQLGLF
Method: Control, non-damaged and ICL-containing DNA substrates were used to analyze replication from a −10 primer by pol II (FIG. 7A) and pol IV (FIGS. 7B and 7C). Using the non-damaged primer-template substrates pol II catalyzed a highly processive polymerization to yield full-length primer extension products. […] ICL bypass by pol II was not observed even when reactions were conducted with increased enzyme concentrations (up to a 1000-fold excess relative to DNA substrate).

E. coli DNA pol IV = E. coli DNA pol IV (Escherichia coli, UniProt Q47155); conditions: −10 primer, 30-minute reactions, 37° C.
Sequence of E. coli DNA pol IV (Q47155 whole entry): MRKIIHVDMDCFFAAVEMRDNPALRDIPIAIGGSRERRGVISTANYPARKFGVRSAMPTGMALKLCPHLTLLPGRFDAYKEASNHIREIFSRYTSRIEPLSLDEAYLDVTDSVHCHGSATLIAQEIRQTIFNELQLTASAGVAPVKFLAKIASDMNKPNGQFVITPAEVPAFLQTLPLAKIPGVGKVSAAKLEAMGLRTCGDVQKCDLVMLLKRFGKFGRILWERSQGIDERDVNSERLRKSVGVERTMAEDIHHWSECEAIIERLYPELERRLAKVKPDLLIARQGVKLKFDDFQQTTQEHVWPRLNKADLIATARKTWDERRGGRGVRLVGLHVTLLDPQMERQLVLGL
Method: The primer extension assays were conducted in a 10 μl reaction volume containing pol II or pol IV, 5 nM primer-template, 5 mM MgCl2, 100 μM dNTPs, 25 mM Tris-HCl (pH 7.5), 25 mM DTT, 0.5 mg/ml BSA and 10% glycerol. Reactions were carried out at 37° C. for 30 minutes followed by termination of the reaction with a solution containing 95% formamide, 10 mM EDTA and 0.03% (w/v) xylene cyanol and 0.03% (w/v) bromophenol blue. DNA replication products were separated through a 15% denaturing polyacrylamide gel at 2000 V and later analyzed on a Phosphor Imager (GE Healthcare).

Molecule | Deletions (COS-7 cells) | Single base substitutions G to A (COS-7 cells) | Single base substitutions G to C (COS-7 cells) | Single base substitutions G to T (COS-7 cells) | Frequency of mutations (COS-7 cells) [%] | Ka of avidin-biotin complex (avidin) | replication from −10 primer by pol II (E. coli DNA pol II) | replication by increasing concentrations of pol IV (E. coli DNA pol IV)
GpC ICL: SEQ ID NO: 3 and 4 joined by G-(CH2)3-G; model acrolein-derived N2-N2-guanine ICL in GpC context (chain 1 GCTGAGCGATCC; chain 2 CCTGCAAGCGATGGATCGCTCAGCATCGCTGGTACC; listed as DNA, chemistry not fully specified) | 5 | 4 | 1 | 1 | 3.2 |  |  | 
O=C(O)CCCC[C@@H]1SC[C@@H]2NC(=O)N[C@@H]21 [biotin] |  |  |  |  |  | 10^15 M^−1 |  | 
ICL1: crosslinked oligodeoxynucleotide, SEQ ID NO: 5 and 6 joined by G-(CH2)3-G; models DNA product of dual incision around the ICL (chain 1 GATGCTANCYTGTC; chain 2 AGCGATAGACACYATAGCATCGCTGGTACCGACTCG; crosslinked oligodeoxynucleotide, G-(CH2)3-G interstrand crosslink, further chemistry not given here) |  |  |  |  |  |  | unable to carry out effective strand-displacement synthesis | very poor strand displacement synthesis
CpG ICL: SEQ ID NO: 1 and 2 joined by G-(CH2)3-G; model acrolein-derived N2-N2-guanine ICL in CpG context (chain 1 GCTAGCGAGTCC; chain 2 CCTGCAAGCGATGGACTCGCTAGCATCGCTGGTACC; listed as DNA, chemistry not fully specified) | 0 | 0 | 0 | 2 | 3.0 |  |  | 
